The values that follow come from patent US8362010B2, “Benzenesulfonanilide compounds suitable for treating disorders that respond to modulation of the serotonin 5-HT6 receptor” (Abbott GmbH & Co. KG, priority 2009, dated 2013).

Structures are written as SMILES. Where a name gives a salt, the structure may show the parent alone.

The target of this test is T1, h-5-HT6 receptor (Homo sapiens, UniProt P50406).
T1 construct: expressed in transfected cells; host or cells: HEK293
T1 sequence (P50406 whole entry): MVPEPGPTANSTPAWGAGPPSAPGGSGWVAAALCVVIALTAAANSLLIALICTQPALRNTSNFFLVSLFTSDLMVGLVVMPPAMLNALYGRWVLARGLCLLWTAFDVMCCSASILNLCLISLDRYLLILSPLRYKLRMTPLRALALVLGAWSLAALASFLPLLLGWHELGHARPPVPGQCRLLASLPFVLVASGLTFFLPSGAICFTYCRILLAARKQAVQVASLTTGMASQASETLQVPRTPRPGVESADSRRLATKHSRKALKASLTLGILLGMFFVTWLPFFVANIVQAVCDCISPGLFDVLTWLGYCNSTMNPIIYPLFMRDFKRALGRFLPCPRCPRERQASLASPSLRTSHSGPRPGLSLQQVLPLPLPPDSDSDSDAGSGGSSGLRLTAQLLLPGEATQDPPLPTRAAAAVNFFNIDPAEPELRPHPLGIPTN
The test can be described thus: 5-HT6 receptor binding assay (displacement of [3H]-LSD). Conditions: membranes of HEK293 cells expressing h-5-HT6; 1 nM [3H]-LSD. The method, then:
Displacement of radioligands binding to the following cloned human receptors
Cells from stable clonal cell lines expressing the corresponding receptor (5-HT6, α1-adrenergic, dopamine D2 or histamine H1 receptors) were washed with PBS (w/o Ca^++, Mg^++) and harvested in PBS with 0.02% EDTA. […] The pellets were stored at −80° C. until use. For membrane preparation, the thawed cell pellet was resuspended in ice-cold sucrose buffer (0.25 M sucrose, 10 mM Hepes (pH 7.4), 1 mM Phenylmethylsulfonyl fluoride (PMSF) in DMSO, 5 μg/ml Pepstatin-A, 3 mM EDTA, 0.025% Bacitracin) and homogenized with a Branson Sonifier W-250 (Settings: Timer 4; Output Control 3; Duty Cycle constant; 2 to 3 cycles). Cell disruption was checked with the aid of a microscope. […] The sucrose buffer supernatant was then centrifuged at 60.000 g for 1 h at 4° C. (Beckman Ultrazentrifuge XL 80). The pellet was resuspended in 30 ml ice-cold Tris buffer (20 mM TRIS (pH 7.4), 5 μg/ml Pepstatin A, 0.1 mM PMSF, 3 mM EDTA) by pipetting through a 10 ml serological pipet and centrifuged for 1 h at 4° C. at 60.000 g. A final resuspension was performed in a small volume of ice-cold Tris buffer (see above) by pressing through a serological pipet followed by ultrasonic treatment with a Branson Sonifier W-250 (Settings: Timer 1; Output Control 3; Duty Cycle constant; 1 cycle). Protein concentration was determined (BCA-Kit; Pierce) and aliquots stored at −80° C. or in liquid nitrogen for long-term storage.
All receptor binding experiments were carried out in the corresponding assay buffer in a total volume of 200 μl in the presence of various concentrations of test compound (10^−5 M to 10^−9 M, tenfold serial dilution, duplicate determinations). The assays were terminated by filtration on polyethylenimine (PEI 0.1% or 0.3%) presoaked Packard Unifilter Plates (GF/C or GF/B) with a Tomtec MachIII U 96 well-plate harvester. After the plates had been dried for 2 h at 55° C. in a drying chamber scintillation cocktail (BetaPlate Scint; PerkinElmer) was added. Radioactivity was measured in a Microbeta Trilux two hours after the addition of the scintillation mixture. Data derived from liquid scintillation counting were analysed by iterative non-linear regression analysis with the use of the Statistical Analysis System (SAS): a program similar to “LIGAND” as described by Munson and Rodbard (Analytical Biochemistry 107, 220-239 (1980). […]
Data derived from liquid scintillation counting were analyzed by iterative non-linear regression analysis with the use of the Statistical Analysis System (SAS): a program similar to “LIGAND” as described by Munson and Rodbard (Anal. Biochem. 1980, 107, 220-239). […] IC50, nH and Ki values were expressed as geometrical mean.
(In general: Loss of bound radioactivity is the signal in a displacement assay; it reports binding, not function.)
`COc1ccc(NS(=O)(=O)c2cccc(OC(F)F)c2)cc1N1CCCNCC1` [Example 1, N-(3-[1,4]Diazepan-1-yl-4-methoxy-phenyl)-3-difluoromethoxy-benzenesulfonamide hydrochloride]: the inhibition constant (Ki) (as a rule, the equilibrium dissociation constant of an inhibitor or competing ligand from its target) is less than 10 nM.

`COc1ccc(NS(=O)(=O)c2ccccc2OC(F)F)cc1N1CCCNCC1` [Example 3, N-(3-[1,4]Diazepan-1-yl-4-methoxy-phenyl)-2-difluoromethoxy-benzenesulfonamide hydrochloride]: the inhibitory constant (Ki) was less than 10 nM.

In turn, `Cc1ccc(NS(=O)(=O)c2cccc(OC(F)F)c2)cc1N1CCCNCC1` [Example 7, N-(3-[1,4]Diazepan-1-yl-4-methyl-phenyl)-3-difluoromethoxy-benzenesulfonamide hydrochloride] yielded a Ki of less than 50 nM.

In the case of `Cc1ccc(NS(=O)(=O)c2ccccc2OC(F)F)cc1N1CCCN(C)CC1` [Example 8, 2-Difluoromethoxy-N-[4-methyl-3-(4-methyl-[1,4]diazepan-1-yl)-phenyl]-benzenesulfonamide hydrochloride], the inhibition constant Ki was less than 10 nM.
